The values below come from ChEMBL document CHEMBL1132867, “A rationally designed anticancer drug targeting a unique binding cavity of tubulin” (Bioorg Med Chem Lett, 2000).

One experiment relates to SQ20B. In words: Anti-proliferative activity of compound against human head/neck cancer SQ20B by standard MTT assay. The class given is functional, cell-based.
Another experiment has as its system MDA-MB-231. In words: Anti-proliferative activity of compound against human breast cancer MDA-MB-231 by standard MTT assay. The class given is functional, cell-based.
The subject of the next experiment is NALM-6. The experiment is described as follows: Anti-proliferative activity of compound against human leukemia NALM-6 by standard MTT assay. The class given is functional, cell-based.
Another experiment has as its system PC-3. The experiment is described as follows: Anti-proliferative activity of compound against human prostate cancer PC-3 by standard MTT assay. The class given is functional, cell-based. The settings on record: PC-3, Prostate gland.
A further experiment concerns U-87 MG. The experiment is described as follows: Anti-proliferative activity of compound against human glioblastoma tumor cell line U87 by standard MTT assay. It counts as functional, cell-based, U-87MG ATCC.

As to `CCCCCCCCCCCC[C@@H](O)[C@H]1CC[C@H](CO)O1` [WHI-261], the IC50 in the experiment with SQ20B was 140 µM; with MDA-MB-231, 7 µM; in the experiment on NALM-6, 49 µM; in the experiment on PC-3, 171 µM; in the experiment on U-87 MG, 107 µM.

For the compound `C[C@@H](O)[C@H]1CC[C@H](CO)O1` [WHI-260], the IC50 with SQ20B, with MDA-MB-231, with NALM-6, in the experiment with PC-3 and in the experiment with U-87 MG was over 250 µM throughout.

As for `OC[C@H]1CC[C@H]([C@@H](O)CO)O1` [WHI-259], the IC50 in the experiment on SQ20B, with MDA-MB-231, in the experiment on NALM-6, with PC-3 and with U-87 MG was over 250 µM each time.

For `O=S(=O)(CC[C@@H](O)[C@H]1CC[C@H](COCc2ccccc2)O1)c1ccccc1` [WHI-262], the IC50 in the experiment on SQ20B, with MDA-MB-231, in the experiment on NALM-6, in the experiment on PC-3 and with U-87 MG was over 250 µM throughout.
